# System: Ba/F3 cells KRAS G12C
# Test: Ba/F3 proliferation assay (KRAS G12C)
# Assay type: cell-based
# Details: Mus musculus, BaF3, 72 h, AlamarBlue viability
# Experimental: (§1) Ba/F3 cells are ordered from DSMZ (ACC300, Lot17) and grown in RPMI-1640 (ATCC 30-2001)+10% FCS+10 ng/mL IL-3 at 37° C. in 5% […] atmosphere. Plasmids containing KRASG12 mutants (i.e. […], G12C, G12V) are obtained from GeneScript. To generate KRASG12-dependent Ba/F3 models, Ba/F3 cells are transduced with retroviruses containing vectors that harbor KRASG12 isoforms. Platinum-E cells (Cell Biolabs) are used for retrovirus packaging. Retrovirus is added to Ba/F3 cells. To ensure infection, 4 μg/mL polybrene is added and cells are spinfected. Infection efficiency is confirmed by measuring GFP-positive cells using a cell analyzer. Cells with an infection efficiency of 10% to 20% are further cultivated and puromycin selection with 1 μg/mL is initiated. As a control, parental Ba/F3 cells are used to show selection status. Selection is considered successful when parental Ba/F3 cells cultures died. To evaluate the transforming potential of KRASG12 mutations, the growth medium is no longer supplemented with IL-3. Ba/F3 cells harboring the empty vector are used as a control. Approximately ten days before conducting the experiments, puromycin is left out.
# (§2) For proliferation assays, Ba/F3 cells are seeded into 384-well plates at 1.5×1 (M cells/60 μL in growth media (RPMI-1640+10% FCS). Compounds (10 mM stock in DMSO) are added at logarithmic dose series using the ECHO acoustic liquid handler system (Beckman Coulter), normalizing for added DMSO and including DMSO controls. All compound treatments are performed in technical duplicates. For the TO time point measurement, untreated cells are analyzed at the time of compound addition. Treated cells are incubated for 72 h at 37° C. with 5% CO2 and cell viability is measured in the PerkinElmer Envision Multimode Reader using AlamarBlue™ (ThermoFisher) viability stain. Viability (stated as percent of control) is defined as relative fluorescence units RFU of each well divided by the RFU of cells in DMSO controls. IC50 values are determined from viability measurements by non-linear regression using a four-parameter model.
row,SMILES,IC50 [nM]
1,C[C@H](Oc1nc(-c2onc3c2CCC[C@@]32CCCc3sc(N)c(C#N)c32)nc2c1n(C)c(=O)n2C1COC1)[C@@H]1CCCN1C [I-24],59
2,C[C@H](Oc1nc(-c2onc3c2CCC[C@@]32CCCc3sc(N)c(C#N)c32)nc2c1n(C)c(=O)n2[C@H]1CO[C@@H](C)C1)[C@@H]1CC[C@H](C)N1C [I-50],3
3,C[C@H](Oc1nc(-c2onc3c2CCC[C@@]32CCCc3sc(N)c(C#N)c32)nc2c1n(C)c(=O)n2[C@H]1CCCOC1)[C@@H]1CCCN1C [I-11],310
4,C[C@@H]1COC[C@H](n2c(=O)n(C)c3c(O[C@@H](C)[C@@H]4CCCN4C)nc(-c4onc5c4CCC[C@@]54CCCc5sc(N)c(C#N)c54)nc32)C1 [I-44],3
5,C[C@H](Oc1nc(-c2noc3c2CCC[C@@]32CCCc3sc(N)c(C#N)c32)nc2c1CCC21CCOC1)[C@@H]1CCCN1C (some centres unmarked) [II-18],31
6,CO[C@H]1CCN(C)[C@@H]1[C@H](C)Oc1nc(-c2onc3c2CCC[C@@]32CCCc3sc(N)c(C#N)c32)nc2c1n(C)c(=O)n2[C@H]1COC[C@@H](C)C1 [I-51],5
7,C[C@H](Oc1nc(-c2onc3c2CCC[C@@]32CCCc3sc(N)c(C#N)c32)nc2c1n(C)c(=O)n2[C@H]1CO[C@@H](C)C1)[C@@H]1CCCN1C [I-47],1
8,CO[C@@H]1C[C@@H]([C@H](C)Oc2nc(-c3onc4c3CCC[C@@]43CCCc4sc(N)c(C#N)c43)nc3c2n(C)c(=O)n3[C@H]2COC[C@@H](C)C2)N(C)C1 [I-52],8
9,C[C@H](Oc1nc(-c2noc3c2CCC[C@@]32CCCc3sc(N)c(C#N)c32)nc2c1CN(C1COC1)C[C@]21CCOC1)[C@@H]1CC[C@H](C)N1C [II-17],3

# System: Ba/F3 cells KRAS G12V
# Test: Ba/F3 proliferation assay (KRAS G12V)
# Assay type: cell-based
# Details: Mus musculus, BaF3, 72 h, AlamarBlue viability
# Experimental: as §1, §2
row,SMILES,IC50 [nM]
1,C[C@H](Oc1nc(-c2onc3c2CCC[C@@]32CCCc3sc(N)c(C#N)c32)nc2c1n(C)c(=O)n2C1COC1)[C@@H]1CCCN1C [I-24],26
2,C[C@H](Oc1nc(-c2onc3c2CCC[C@@]32CCCc3sc(N)c(C#N)c32)nc2c1n(C)c(=O)n2[C@H]1CO[C@@H](C)C1)[C@@H]1CC[C@H](C)N1C [I-50],1
3,C[C@H](Oc1nc(-c2onc3c2CCC[C@@]32CCCc3sc(N)c(C#N)c32)nc2c1n(C)c(=O)n2[C@H]1CCCOC1)[C@@H]1CCCN1C [I-11],128
4,C[C@@H]1COC[C@H](n2c(=O)n(C)c3c(O[C@@H](C)[C@@H]4CCCN4C)nc(-c4onc5c4CCC[C@@]54CCCc5sc(N)c(C#N)c54)nc32)C1 [I-44],2
5,C[C@H](Oc1nc(-c2noc3c2CCC[C@@]32CCCc3sc(N)c(C#N)c32)nc2c1CCC21CCOC1)[C@@H]1CCCN1C (some centres unmarked) [II-18],13
6,CO[C@H]1CCN(C)[C@@H]1[C@H](C)Oc1nc(-c2onc3c2CCC[C@@]32CCCc3sc(N)c(C#N)c32)nc2c1n(C)c(=O)n2[C@H]1COC[C@@H](C)C1 [I-51],2
7,CO[C@@H]1C[C@@H]([C@H](C)Oc2nc(-c3onc4c3CCC[C@@]43CCCc4sc(N)c(C#N)c43)nc3c2n(C)c(=O)n3[C@H]2COC[C@@H](C)C2)N(C)C1 [I-52],3
8,C[C@H](Oc1nc(-c2noc3c2CCC[C@@]32CCCc3sc(N)c(C#N)c32)nc2c1CN(C1COC1)C[C@]21CCOC1)[C@@H]1CC[C@H](C)N1C [II-17],1

# System: AsPC-1 cells
# Test: AsPC-1 CTG proliferation assay (120 h) (pancreatic cancer, G12D)
# Assay type: cell-based
# Details: Homo sapiens, ASPC1
# Experimental: (§3) AsPC-1 cells (ATCC CRL-1682) are dispensed into black 384-well plates, flat and clear bottom (Greiner, PNr. 781091) at a density of 500 cells per well in 60 μl RPMI ATCC-Formulation (PAN P04-18047)+10% FCS (fetal calf serum, HyClone, SH30084.03). Cells are incubated overnight at 37° C. in a humidified tissue culture incubator at 5% CO2. Compounds (10 mM stock in DMSO) are added at logarithmic dose series using the ECHO acoustic liquid handler system (Beckman Coulter), normalizing for added DMSO and including DMSO controls. All compound treatments are performed in technical duplicates. For the TO time point measurement, untreated cells are analyzed at the time of compound addition. Plates are incubated for 120 h, and cell viability is measured using CellTiter-Glo luminescent cell viability reagent (Promega product code G7570). Viability (stated as percent of control) is defined as relative luminescence units RLU of each well divided by the RLU of cells in DMSO controls. IC50 values are determined from viability measurements by non-linear regression using a four-parameter model.
# (§4) IC50 values of representative compounds according to the invention measured with these assays in the indicated cell lines are presented in Table 46.
row,SMILES,IC50 [nM]
1,C[C@H](Oc1nc(-c2onc3c2CCC[C@@]32CCCc3sc(N)c(C#N)c32)nc2c1n(C)c(=O)n2C1COC1)[C@@H]1CCCN1C [I-24],2760
2,C[C@H](Oc1nc(-c2onc3c2CCC[C@@]32CCCc3sc(N)c(C#N)c32)nc2c1n(C)c(=O)n2[C@H]1CCCOC1)[C@@H]1CCCN1C [I-11],4480
3,C[C@@H]1COC[C@H](n2c(=O)n(C)c3c(O[C@@H](C)[C@@H]4CCCN4C)nc(-c4onc5c4CCC[C@@]54CCCc5sc(N)c(C#N)c54)nc32)C1 [I-44],271
4,C[C@H](Oc1nc(-c2noc3c2CCC[C@@]32CCCc3sc(N)c(C#N)c32)nc2c1CCC21CCOC1)[C@@H]1CCCN1C (some centres unmarked) [II-18],315
5,C[C@H](Oc1nc(-c2noc3c2CCC[C@@]32CCCc3sc(N)c(C#N)c32)nc2c1CN(C1COC1)C[C@]21CCOC1)[C@@H]1CC[C@H](C)N1C [II-17],237

# System: MKN1 cells
# Test: MKN1 CTG proliferation assay (120 h) (gastric cancer, wt amplified)
# Assay type: cell-based
# Details: Homo sapiens, MKN-1
# Experimental: as §3, with “MKN1” for “AsPC-1”, “(JCRB0252)” for “(ATCC CRL-1682)”, “200” for “500”, “RPMI-1640” for “RPMI”, “(Gibco #A10491)+10%” for “(PAN P04-18047)+10%”
# as §4
row,SMILES,IC50 [nM]
1,C[C@H](Oc1nc(-c2onc3c2CCC[C@@]32CCCc3sc(N)c(C#N)c32)nc2c1n(C)c(=O)n2C1COC1)[C@@H]1CCCN1C [I-24],355
2,C[C@H](Oc1nc(-c2onc3c2CCC[C@@]32CCCc3sc(N)c(C#N)c32)nc2c1n(C)c(=O)n2[C@H]1CCCOC1)[C@@H]1CCCN1C [I-11],334
3,C[C@@H]1COC[C@H](n2c(=O)n(C)c3c(O[C@@H](C)[C@@H]4CCCN4C)nc(-c4onc5c4CCC[C@@]54CCCc5sc(N)c(C#N)c54)nc32)C1 [I-44],10
4,C[C@H](Oc1nc(-c2noc3c2CCC[C@@]32CCCc3sc(N)c(C#N)c32)nc2c1CN(C1COC1)C[C@]21CCOC1)[C@@H]1CC[C@H](C)N1C [II-17],20

# System: not listed separately
# Test: Metabolic (microsomal) stability assay, human liver microsomes (HLM)
# Assay type: in vitro ADME
# Details: 1 μM test compound, predicted clearance as percent of liver blood flow
# Experimental: The metabolic degradation of the test compound is assayed at 37° C. with pooled liver microsomes (mouse (MLM), rat (RLM) or human (HLM)). The final incubation volume of 48 μL per time point contains TRIS buffer (pH 7.5; 0.1 M), magnesium chloride (6.5 mM), microsomal protein (0.5 mg/mL for mouse/rat, 1 mg/mL for human specimens) and the test compound at a final concentration of 1 μM. Following a short preincubation period at 37° C., the reactions are initiated by addition of 12 μL beta-nicotinamide adenine dinucleotide phosphate, reduced form (NADPH, 10 mM) and terminated by transferring an aliquot into solvent after different time points (0, 5, 15, 30, 60 min). Additionally, the NADPH-independent degradation is monitored in incubations without NADPH, terminated at the last time point by addition of acetonitrile. The quenched incubations are pelleted by centrifugation (4,000 rpm, 15 min). An aliquot of the supernatant is assayed by LC-MS/MS to quantify the concentration of parent compound in the individual samples.
# In vitro intrinsic clearance (CLint,in vitro) is calculated from the time course of the disappearance of the test drug during the microsomal incubation. Each plot is fitted to the first-order elimination rate constant as C(t)=C0*exp(−ke*t), where C(t) and C0 are the concentration of unchanged test drug at incubation time t and that at preincubation and ke is the disappearance rate constant of the unchanged drug. Subsequently, CLint, in vitro (μL min^−1·amount protein) values are converted to predicted CLint,in vivo (mL min^−1·kg^−1) from incubation parameters according to the equation CLint, in vivo=CLint, in vitro×(incubation volume (mL)/amount protein (mg))×(amount protein (mg)/g liver tissue)×(liver weight/body wt.).
# For better across species comparison the predicted clearance is expressed as percent of the liver blood flow [% QH] (mL min^−1·kg^−1) in the individual species. In general, high stability (corresponding to low % QH) of the compounds across species is desired.
row,SMILES,HLM QH [%]
1,C[C@H](Oc1nc(-c2onc3c2CCC[C@@]32CCCc3sc(N)c(C#N)c32)nc2c1n(C)c(=O)n2C1COC1)[C@@H]1CCCN1C [I-24],<24
2,C[C@H](Oc1nc(-c2onc3c2CCC[C@@]32CCCc3sc(N)c(C#N)c32)nc2c1n(C)c(=O)n2[C@H]1CO[C@@H](C)C1)[C@@H]1CC[C@H](C)N1C [I-50],35
3,C[C@H](Oc1nc(-c2noc3c2CCC[C@@]32CCCc3sc(N)c(C#N)c32)nc2c1CCC21CCOC1)[C@@H]1CCCN1C (some centres unmarked) [II-18],36
4,CO[C@H]1CCN(C)[C@@H]1[C@H](C)Oc1nc(-c2onc3c2CCC[C@@]32CCCc3sc(N)c(C#N)c32)nc2c1n(C)c(=O)n2[C@H]1COC[C@@H](C)C1 [I-51],74
5,C[C@H](Oc1nc(-c2onc3c2CCC[C@@]32CCCc3sc(N)c(C#N)c32)nc2c1n(C)c(=O)n2[C@H]1CO[C@@H](C)C1)[C@@H]1CCCN1C [I-47],<24
6,CO[C@@H]1C[C@@H]([C@H](C)Oc2nc(-c3onc4c3CCC[C@@]43CCCc4sc(N)c(C#N)c43)nc3c2n(C)c(=O)n3[C@H]2COC[C@@H](C)C2)N(C)C1 [I-52],46

# — patent US20250019385A1, “SPIROCYCLIC ANNULATED 2-AMINO-3-CYANO THIOPHENES AND DERIVATIVES FOR THE TREATMENT OF CANCER” (Boehringer Ingelheim International GmbH, priority 2023, published 2025)
